In patent US8563516B2, “Foxp3 peptide vaccine” (OncoTherapy Science, Inc., priority 2007, dated 2013):
“Also recorded” adds a separate entry of the source.

Key:
4T1 breast cancer cells = experiment: In vivo antitumor effects of vaccination, 4T1 tumor; set-up: species or system BALB/c mice; details: 4T1 s.c. day 0, vaccination day 3 and 10, compared with control mice, FIG. 6
Experimental: 1×10^5 4T1 breast cancer cell lines were injected into BALB/c mice on day 0. IFA-conjugated with Foxp3-252_h (-open circle-), Foxp3-252_m (-solid square-), no peptide (-solid triangle-) was injected on day 3 and 10. As control of normal tumor growth, non-vaccinated mice (-x-) were also prepared in this assay.
4T1 cells (1×10^5 per mouse) were injected s.c. into the right flank of BALB/c mice on day 0. Vaccination was done on days 3 and 10 using hFoxp3-252 (KLSAMQAHL: SEQ ID NO: 17) or mFoxp3-252 (KLGAMQAHL: SEQ ID NO: […]) IFA-conjugated peptides.
To examine the antitumor effects with peptide vaccination targeted Foxp3, in vivo therapeutic setting was attempted by using 4T1 tumor cells and BALB/c mice. The 4T1 breast cancer cells were injected s.c. into BALB/c mice on day 0, and then vaccination was done on these mice 3 and 10 days after the tumor challenge.

BALB/c mice = experiment: Immunogenicity of epitope peptides in BALB/c mice (IFN-gamma ELISPOT on splenocytes); format: in vivo
Experimental: IFA-conjugated peptide or IFA only were injected s.c. into BALB/c mice on day 0 and 7. On day 14, splenocytes of vaccinated mice were harvested and used as responder cells. 1×10^4 RLmale1 cells pulsed corresponding peptide (solid square), or no peptide (open square) were used as stimulator cells for IFN-gamma ELISPOT assay. Vaccination using Foxp3-252_h (A) and Foxp3-252_m (B) were performed into five mice (M1-M5) and IFA without any peptide injection were performed into three mice (N1-N3) as control in each assay.
For priming the peptide-specific CTLs, immunization was given using 100 mcl vaccine mixture, which contains 50 mcl HLA-A24 restricted peptide and 50 mcl IFA per mouse. The vaccine was injected s.c. into the right flank of mice for the first immunization on day 0 and in the left flank for the second on the day 7. On day 14, splenocytes from vaccinated mice were used as the responder cells, and RLmale1 cells pulsed with or without peptides were used as the stimulator cells for IFN-gamma ELISPOT assay.
To evaluate the immunogenicity of Foxp3-9-252 peptide for BALB/c mice, immunization with human Foxp3-9-252 peptide (Foxp3-252_h; KLSAMQAHL)(SEQ ID NO: 17) and mouse Foxp3-9-252 peptide (Foxp3-252_m; KLGAMQAHL) (SEQ ID NO: 89) were performed, respectively. After second injection of peptide, peptide specific CTL activity was determined by IFN-gamma ELISPOT assay (FIG. 5).

KLSAMQAHL (peptide vaccine) [SEQ ID NO 17]
tumor growth / antitumor effect (4T1 breast cancer cells; listed as Foxp3-252_h): tumor growth apparently reduced; also recorded: Significant difference of tumor growth suppression
tumor growth / antitumor effect (4T1 breast cancer cells; listed as hFoxp3-252): obviously anti-tumor effects; also recorded: superior to mFoxp3-252 peptide
mice with peptide specific CTL response (BALB/c mice; IFA-conjugated peptide s.c. day 0 and 7, splenocytes day 14, RLmale1 stimulator cells, FIG. 5): three of five
induction of epitope specific CTLs in vivo (BALB/c mice; vaccination of BALB/c mice, discussion, listed as hFoxp3-252): could induce epitope specific CTLs in vivo; also recorded: superior to mFoxp3-252 peptide
